Measured values taken from patent publication US10925858B2, “S-nitrosoglutathione (GSNO) and GSNO reductase inhibitors for use in therapy” (MUSC FOUNDATION FOR RESEARCH DEVELOPMENT, priority 2017, dated 2021).

How the values were obtained:
[1] = tested on: tight junction proteins (ZO-1, Occludin, Claudin-5); test: Western blotting, protein expression of tight junction proteins in isolated microvessels of diabetic mice; format: in vivo
Method: Male laca mice weighing between 28-32 g were procured from the Central Animal House, Panjab University, Chandigarh. The animals were acclimatized and were fed with standard pellet diet and water ad libitum. The experimental protocols were approved by the Institutional Ethics Committee and were conducted according to Indian National Science Academy (INSA) guidelines for the use and care of experimental animals. The animals were divided into four groups: (i) Control animals received phosphate buffered saline (PBS) throughout the study; (ii) Control+GSNO animals were administered with GSNO 100 μg/kg body weight orally, dissolved in PBS after every 24 h for 8 weeks; (iii) Diabetic animals were injected with STZ at a dose of 40 mg/kg body weight intraperitoneally for 5 days dissolved in 0.1 mol/L citrate buffer, pH 4.5 and Diabetic+GSNO mice were administered GSNO 100 μg/kg body weight orally dissolved in PBS after every 24 h for 8 weeks after the induction of diabetes. Animals were assessed weekly for development of diabetic encephalopathy in terms of memory deficits. All experimental procedures were done on mice at the end of study. The microvessels were isolated by the method described by Brooks et al., (2005). Brain tissue was homogenized in microisolation buffer (103 mM NaCl, 4.7 mM KCl, 2.5 mM CaCb, 1.2 mM KH2PO4, 1.2 mM MgSO4, 15 mM HEPES, 2.5 mM NaHCO3, 10 mM D-glucose, 1 mM sodium pyruvate and 10 g/L dextran (64,000 mol wt), pH 7.4) and equal amount of 26% (w/v) dextran was added. The sample was then centrifuged at 5600 g for 10 min and pellets obtained were resuspended in microisolation buffer. Then the suspension was filtered through 70 μm filter (BD Biosciences, Gurgaon, India). The filtered homogenates were then centrifuged at 3000 g for 10 min at 4° C. and the pellet was obtained. Protein expression of tight junction proteins and cell adhesion molecules i.e. ZO-1, occludin, Claudin-5, ICAM-1 and VCAM-1 was studied in microvessels obtained from cortex and hippocampus regions of the brain (Towbin et al., 1992). […]

[2] = tested on: cell adhesion molecules (ICAM-1 and VCAM-1); test: Western blotting, protein expression of cell adhesion molecules in isolated microvessels of diabetic mice; format: in vivo; conditions: cortex and hippocampus microvessels, GSNO vs untreated diabetic group
Method: Male laca mice weighing between 28-32 g were procured from the Central Animal House, Panjab University, Chandigarh. The animals were acclimatized and were fed with standard pellet diet and water ad libitum. The experimental protocols were approved by the Institutional Ethics Committee and were conducted according to Indian National Science Academy (INSA) guidelines for the use and care of experimental animals. The animals were divided into four groups: (i) Control animals received phosphate buffered saline (PBS) throughout the study; (ii) Control+GSNO animals were administered with GSNO 100 μg/kg body weight orally, dissolved in PBS after every 24 h for 8 weeks; (iii) Diabetic animals were injected with STZ at a dose of 40 mg/kg body weight intraperitoneally for 5 days dissolved in 0.1 mol/L citrate buffer, pH 4.5 and Diabetic+GSNO mice were administered GSNO 100 μg/kg body weight orally dissolved in PBS after every 24 h for 8 weeks after the induction of diabetes. Animals were assessed weekly for development of diabetic encephalopathy in terms of memory deficits. All experimental procedures were done on mice at the end of study. The microvessels were isolated by the method described by Brooks et al., (2005). […]

[3] = microvessels of cortex and hippocampus, diabetic mice + GSNO 100 μg/kg oral 8 weeks

## N[C@@H](CCC(=O)N[C@@H](CSN=O)C(=O)NCC(=O)O)C(=O)O [GSNO, S-nitrosoglutathione]
[1]; GSNO treated diabetic animals
  protein expression of claudin-5: no significant change
[1]; [3]
  increase of protein expression of ZO-1: ~70%
  increase of protein expression of occludin: ~60%
[2]
  protein expression of ICAM-1: significantly mitigate
  protein expression of VCAM-1: significantly mitigate
